Our source for the Ki values is publication PMC6586119, “Synthesis and biological evaluation of novel 8-substituted quinoline-2-carboxamides as carbonic anhydrase inhibitors” (Journal of Enzyme Inhibition and Medicinal Chemistry, 2019).

Assay in all cases: stopped-flow CO2 hydration assay
What all share (type): biochemical

One experiment has as its target T1, hCA I (Homo sapiens, UniProt P00915).
T1 construct: gene CA1; recombinant, cytosolic isoform
An excerpt: stopped-flow CO2 hydration assay on hCA I

The target of another experiment is T2, hCA II (Homo sapiens, UniProt P00918).
T2 construct: gene CA2; recombinant, cytosolic isoform
The text has this:
stopped-flow CO2 hydration assay on hCA II

For another experiment, the target named is T3, hCA IV (Homo sapiens, UniProt P22748).
T3 construct: gene CA4
An excerpt: stopped-flow CO2 hydration assay on hCA IV

Where [1] appears, read: CO2 hydration, […] Hepes pH […] °C, […] Na2SO4 or NaClO4, […] min preincubation.

Like-named read-outs stand apart in the source and are kept apart here.

T1 sequence (P00915 2-261): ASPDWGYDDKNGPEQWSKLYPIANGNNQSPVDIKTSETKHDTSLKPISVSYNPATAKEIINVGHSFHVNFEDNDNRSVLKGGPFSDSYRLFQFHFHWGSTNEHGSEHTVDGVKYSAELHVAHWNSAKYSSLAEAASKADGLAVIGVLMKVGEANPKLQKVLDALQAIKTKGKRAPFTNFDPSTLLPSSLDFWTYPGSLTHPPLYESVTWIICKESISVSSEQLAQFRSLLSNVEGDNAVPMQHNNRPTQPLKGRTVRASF
T3 sequence (P22748 19-284): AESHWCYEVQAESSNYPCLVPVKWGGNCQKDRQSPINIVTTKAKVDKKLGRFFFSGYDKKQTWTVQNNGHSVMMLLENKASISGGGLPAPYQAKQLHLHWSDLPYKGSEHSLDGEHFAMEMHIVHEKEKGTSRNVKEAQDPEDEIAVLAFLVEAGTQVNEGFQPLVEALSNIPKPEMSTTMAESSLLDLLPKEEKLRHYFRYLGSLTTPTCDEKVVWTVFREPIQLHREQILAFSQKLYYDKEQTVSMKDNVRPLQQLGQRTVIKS

By Ki is commonly meant the equilibrium dissociation constant of an inhibitor or competing ligand from its target. Regarding `NS(=O)(=O)c1ccc(NC(=O)c2ccc3cccc(OCc4ccccc4Br)c3n2)cc1` [5b, 8-((2-Bromobenzyl)oxy)-N-(4-sulfamoylphenyl)quinoline-2-carboxamide], the Ki on hCA I was 444 nM; on hCA II, 85.7 nM; at hCA IV, 3930 nM.
The like results for `Cc1cc(C)cc(COc2cccc3ccc(C(=O)Nc4ccc(S(N)(=O)=O)cc4)nc23)c1` [5d, 8-((3,5-Dimethylbenzyl)oxy)-N-(4-sulfamoylphenyl)quinoline-2-carboxamide] were, in that order, 8130 nM, 8760 nM and 6760 nM.
On to `NS(=O)(=O)c1ccc(NC(=O)c2ccc3cccc(OCc4cc(F)ccc4F)c3n2)cc1` [5f, 8-((2,5-Difluorobenzyl)oxy)-N-(4-sulfamoylphenyl)quinoline-2-carboxamide], for which the results for the Ki on hCA I, on hCA II and on hCA IV were 6560 nM, 957 nM and 787 nM, respectively.
Taken in the same sequence, the figures for `NS(=O)(=O)c1ccc(NC(=O)c2ccc3cccc(OCc4ccccc4)c3n2)cc1` [5c, 8-(Benzyloxy)-N-(4-sulfamoylphenyl)quinoline-2-carboxamide] were 5290 nM, 8340 nM and 6410 nM.
On to `NS(=O)(=O)c1ccc(NC(=O)c2ccc3cccc(OCc4ccc([N+](=O)[O-])cc4)c3n2)cc1` [5a, 8-((4-Nitrobenzyl)oxy)-N-(4-sulfamoylphenyl)quinoline-2-carboxamide], for which the Ki on hCA I worked out at 641 nM; on hCA II it was 88.4 nM; at hCA IV, 691 nM.
As for `COc1cccc2ccc(C(=O)Nc3ccc(S(N)(=O)=O)cc3)nc12` [5h, 8-Methoxy-N-(4-sulfamoylphenyl)quinoline-2-carboxamide], the Ki on hCA I (setting [1]) was determined as 61.9 nM; at hCA II (setting [1]) it was 33 nM; at hCA IV, 1750 nM.
For `C#CCOc1cccc2ccc(C(=O)Nc3ccc(S(N)(=O)=O)cc3)nc12` [5g, 8-(Prop-2-yn-1-yloxy)-N-(4-sulfamoylphenyl)quinoline-2-carboxamide], the figures for the Ki on hCA I, on hCA II and at hCA IV were 6910 nM, 5110 nM and 657 nM, respectively.
Regarding `NS(=O)(=O)c1ccc(NC(=O)c2ccc3cccc(OCc4cccc(Cl)c4)c3n2)cc1` [5e, 8-((3-Chlorobenzyl)oxy)-N-(4-sulfamoylphenyl)quinoline-2-carboxamide], the figures for the Ki on hCA I, on hCA II and at hCA IV were 6470 nM, 5170 nM and 807 nM, respectively.
